Experimental data from patent US7129234B2, “Phenyl heterocyclyl ethers” (Pfizer Inc., priority 2001, dated 2006).
Structures can show the parent of a compound that is named as a salt.

Row | melting point | SMILES
1 | 198 to 203 °C | CNCc1cccnc1Oc1ccc(Cl)c(Cl)c1 (as salt: HCl) [Example 105, [2-(3,4-Dichlorophenoxy)-3-pyridinyl]-N-methylmethanamine]
2 | 224 to 226 °C | CNCc1cc2ccccc2nc1Oc1ccc(Cl)c(Cl)c1 (as salt: HCl) [Example 104, [2-(3,4-Dichlorophenoxy)-3-quinolinyl]-N-methylmethanamine]
3 | 195 to 197 °C | CN(C)Cc1cccnc1Oc1ccc(Cl)cc1 (as salt: hydrochloride) [Example 106, [2-(4-Chlorophenoxy)-3-pyridinyl]-N,N-dimethylmethanamine hydrochloride]
4 | 198 to 203 °C | CNCc1cnccc1Oc1ccc(Cl)c(Cl)c1 (as salt: hydrochloride) [Example 103, [4-(3,4-Dichlorophenoxy)-3-pyridinyl]-N-methylmethanamine hydrochloride]
